Assay results: the NIST ThermoML archive (doi:10.1021/acs.jced.7b00185)
± gives the expanded uncertainty stated by the source.

Conditions: Liquid; for mass density: 298.15 K, 101.33 kPa, Vibrating tube method; for vapor or sublimation pressure: Ebulliometric method (Recirculating still)

| mass density | vapor or sublimation pressure (336.61 K) | vapor or sublimation pressure (344.29 K) | vapor or sublimation pressure (350.5 K) | vapor or sublimation pressure (355.83 K) | vapor or sublimation pressure (360.49 K) | vapor or sublimation pressure (363 K) | Compound |
| --- | --- | --- | --- | --- | --- | --- | --- |
| 786.56 ± 0.12 kg/m3 |  |  |  |  |  |  | CO [methanol] |
| 1028.08 ± 0.1 kg/m3 |  |  |  |  |  |  | CCOC(=O)C(C)O (racemic) [DL-ethyl lactate] |
| 1063.29 ± 0.08 kg/m3 | 40 ± 3.5 kPa | 53.33 ± 3.8 kPa | 66.66 ± 4.6 kPa | 79.99 ± 5.3 kPa | 93.32 ± 5.9 kPa | 101.3 ± 6.4 kPa | COC(=O)OC [dimethyl carbonate] |
